Results from US20130178453A1, “Cannabinoid Agonists” (priority 2010, published 2013).
Where two headings read alike, the source gives them in different places.

Key:
hCB1 [1] = biological target: T1, hCB1 (Homo sapiens, UniProt P21554); assay: hCB1 cAMP agonist assay (HEK-293 cells); assay type: cell-based; conditions: for hCB1 EC50 (cAMP ag, nM, HEK (96-well)): cAMP agonist
hCB1 [2] = biological target: T1, hCB1; assay: hCB1 radioligand binding assay ([3H]-CP 55,940 displacement); conditions: HEK membranes
Description: (§1) cDNA expression clones for human CB 1 (hCB1, Genbank Accession No. AY225225) and human CB2 (hCB2, Genbank Accession No. AY242132) expressed in vector pcDNA3.1+ were purchased from UMR cDNA Resource Center, Rolla, Mo. (Clone ID CNR01L000 for hCB1; CNR0200000 for hCB2).
Stable, HEK-293-derived cell lines that recombinantly express hCB1 or hCB2 were established. In brief, the clone hCB1 (CNR1L) or hCB2 (CNR2) was transfected into human embryonic kidney cells (HEK-293) using Lipofectamine 2000 (Gibco, Cat#11668-019) according to the manufacturer's protocol. Transfected clones were isolated by single colony purification and clones were screened for receptor expression using a whole cell, ^3H—CP 55,940 radioligand binding assay. HEK-293 stable cells were maintained in Dulbecco's modified Eagles medium (DMEM) containing 10% fetal bovine serum, 2 mM L-glutamine and 0.5 mg/mL G-418.
(§2) Membranes were isolated from transfected cells as follows. Monolayers of cultured cells were washed twice with phosphate-buffered saline (PBS). Cells were scraped into 20 mM HEPES, pH 7.4, 10 mM EDTA containing complete cocktail protease inhibitors (Roche, Catalog #11 697 498 001), and were homogenized by an electric-powered mechanical probe homogenizer (Omni GLH; probe G7-195S) for 40 seconds at 7000 rpm. Homogenates were centrifuged 10 minutes at 1000×g at 4° C. The supernatant was collected and was centrifuged for 1 hour at 40,000×g. The supernatant was then decanted and the resulting pellet was re-suspended in 20 mM HEPES, pH 7.4, 5 mM MgCl2, 1 mM EDTA, 10% sucrose with complete cocktail protease inhibitors. Protein concentration of membrane suspensions were measured by Bradford Protein Assay using bovine serum albumin as the standard (BioRad catalog #500-0006). Protein concentrations of membrane suspensions were adjusted with the final buffer in the range of 5 to 10 mg/mL and were stored at −80° C. until further use.
Radioligand binding assays were performed by incubating membranes (2-10 μg protein) prepared from HEK-293 cells expressing recombinant human cannabinoid receptors, CB 1 or CB2, at room temperature with 0.5 nM cannabinoid receptor agonist, [^3H]-CP 55,940 (Perkin Elmer, catalog #NET 1051) in 0.2 mL of binding buffer (50 mM Tris-HCl, pH 7.5, 5 mM MgCl2, 2.5 mM EDTA) and 0.1% fatty acid free bovine serum albumin (Sigma Cat. #A0821) for 90 minutes. A rapid filtration technique using Millipore FB filter plates (Catalog #MADVNOB) and filtration apparatus (Millipore system Catalog MAVM0960R) with vacuum aspiration was used to harvest and rinse labeled membranes (8 times with 0.2 mL of chilled binding buffer). The radioactivity bound to the filters was counted with 0.05 mL of liquid scintillant (UltraGold MV, PerkinElmer catalog #6013159) in a scintillation counter (Perkin Elmer Microbeta instrument). Nonspecific binding was determined in the presence of unlabeled 1 μM CP 55,940 (Sigma Aldrich, catalog #C1112). Binding data were analyzed using GraphPad Prism (GraphPad Software, Inc. San Diego, Calif.).

hCB2 [3] = biological target: T2, hCB2 (Homo sapiens, UniProt P34972); assay: hCB2 radioligand binding assay ([3H]-CP 55,940 displacement); conditions: HEK membranes
Protocol: as §1
as §2, with “Cells were scraped into 20 mM HEPES, pH 7.4, 10 mM EDTA containing complete cocktail protease inhibitors (Roche, Catalog #11 697 498 001), and were homogenized by an electric-powered mechanical probe homogenizer (Omni GLH; probe G7-195S) for 40 seconds at 7000 rpm.” left out
A rapid filtration technique using Millipore FB filter plates (Catalog #MADVNOB) and filtration apparatus (Millipore system Catalog MAVM0960R) with vacuum aspiration was used to harvest and rinse labeled membranes (8 times with 0.2 mL of chilled binding buffer). […] Binding data were analyzed using GraphPad Prism (GraphPad Software, Inc. San Diego, Calif.).

hCB2 [4] = biological target: T2, hCB2; assay: hCB2 GTPγS agonist assay (HEK-293 membranes); assay type: biochemical
Protocol: as §1
as §2, with “Cells were scraped into 20 mM HEPES, pH 7.4, 10 mM EDTA containing complete cocktail protease inhibitors (Roche, Catalog #11 697 498 001), and were homogenized by an electric-powered mechanical probe homogenizer (Omni GLH; probe G7-195S) for 40 seconds at 7000 rpm.” left out
^35S GTPγS binding assays were performed by incubating recombinant cell membranes prepared above (5 μg) in the presence of scintillation proximity assay beads (SPA beads, Catalog #RPNQ0252 GE Healthcare, Buckinghamshire, England) in GTPγS binding buffer [50 mM HEPES (pH 7.4), 100 mM NaCl, 5 mM MgCl2, 0.001% saponin (Sigma catalog #S4521)] supplemented with 20 uM GDP (Sigma catalog #G7127) in the presence or absence of test compound. The reaction was carried out in 96-well microplates with 0.1 nM [^35S]GTPγS (specific activity=1250 Ci/mmol; Perkin Elmer catalog #NEG030X250UC) in a final volume of 100 μL. After a 90 min room temperature incubation, the reaction was analyzed using a scintillation counter (Perkin Elmer Microbeta instrument). Binding data were analyzed using GraphPad Prism.

hCB2 [5] = biological target: T2, hCB2; assay: hCB2 cAMP agonist assay (HEK-293 cells); assay type: cell-based
Protocol: as §1
cAMP assays were performed in HEK-293 cells stably expressing human CB 1 or CB2 receptors. […] Cells suspensions were centrifuged and the cells were washed once with PBS, were centrifuged again, and the cells were resuspended in HBSS (Hank's Balanced Salt Solution, Cellgro, Cat #21-022-CV) solution containing 10 mM HEPES and 0.1% fatty acid free BSA (Sigma, Cat #A0281). Cell suspensions were prepared at 1,500,000 cells per mL. Stock solutions of test substances (10 mM) in DMSO were diluted to 1 mM using 30% DMSO as diluent. Test substances of solutions (1 mM) were further diluted down to 3× of final assay concentrations in the above HBSS buffer containing 0.1% BSA in the presence of 90 uM forskolin (Sigma Cat#F6886). To perform the assay, 20 μL of cell suspension (1,500,000 cells/mL) were added to each well in 96 well plate and treated with 10 μL test substance solution diluted as described above. Cells and compounds were incubated at 37° C. for 30 minutes. Cells were lysed and cAMP concentration was measured using DiscoveRx-XS+ cAMP assay kit (DiscoveRx Corporation Ltd., Fremont, Calif., USA, Cat #90-0075-03), following the manufacturer's protocol. GraphPad Prism software was used to calculate EC50 values using sigmoidal dose response curve fitting. The maximal amount of cAMP produced by forskolin was defined as 100%.

[6] = GTPγS agonist, HEK membranes, read-out: hCB2 EC50 (GTPyS ag, nM, HEK)
[7] = cAMP agonist, HEK, 96-well, read-out: hCB2 EC50 (cAMP ag, nM, HEK (96-well))
[8] = read-out: hCB1 IC50 (CP displ, nM, HEK)
[9] = read-out: hCB2 IC50 (CP displ, nM, HEK)

T2 sequence (P34972 whole entry): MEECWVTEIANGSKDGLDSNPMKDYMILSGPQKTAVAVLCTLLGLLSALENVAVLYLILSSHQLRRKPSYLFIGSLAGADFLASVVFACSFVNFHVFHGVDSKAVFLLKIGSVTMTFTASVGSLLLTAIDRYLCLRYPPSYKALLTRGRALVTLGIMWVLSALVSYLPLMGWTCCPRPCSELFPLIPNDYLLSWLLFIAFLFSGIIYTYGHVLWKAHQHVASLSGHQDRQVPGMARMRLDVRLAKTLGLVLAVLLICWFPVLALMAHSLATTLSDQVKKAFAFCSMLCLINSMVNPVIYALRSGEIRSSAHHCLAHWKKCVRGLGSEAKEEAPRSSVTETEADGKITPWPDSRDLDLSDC
T1 sequence (P21554 whole entry): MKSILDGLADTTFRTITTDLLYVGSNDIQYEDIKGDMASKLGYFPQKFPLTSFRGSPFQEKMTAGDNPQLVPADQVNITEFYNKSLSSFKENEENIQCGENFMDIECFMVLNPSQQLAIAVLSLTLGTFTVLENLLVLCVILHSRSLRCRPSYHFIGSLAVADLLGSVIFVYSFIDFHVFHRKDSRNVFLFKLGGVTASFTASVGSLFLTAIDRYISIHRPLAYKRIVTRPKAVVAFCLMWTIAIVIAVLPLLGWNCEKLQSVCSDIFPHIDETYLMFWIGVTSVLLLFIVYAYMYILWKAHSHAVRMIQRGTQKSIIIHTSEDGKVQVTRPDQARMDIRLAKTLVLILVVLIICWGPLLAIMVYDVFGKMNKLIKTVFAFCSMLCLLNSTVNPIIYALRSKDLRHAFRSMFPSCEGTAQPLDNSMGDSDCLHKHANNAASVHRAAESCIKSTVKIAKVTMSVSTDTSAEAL

SMILES | hCB1 EC50 (cAMP ag, nM, HEK (96-well)) (hCB1 [1]) | IC50 (hCB1 [2]; hCB1 IC50 (CP displ, nM, HEK)) | IC50 (hCB2 [3]; hCB2 IC50 (CP displ, nM, HEK)) | EC50 (hCB2 [4]) | EC50 (hCB2 [5]) | EC50 (hCB1 [1]) | EC50 (hCB2 [4]; [6]) | EC50 (hCB2 [5]; [7]) | IC50 (hCB1 [2]; [8]) | IC50 (hCB2 [3]; [9])
CCCn1c(C)c(C(=O)c2c(C)[nH]c3sccc23)c2ccccc21 [Compound I-6] | NS (“Not Significant,” which means less than 30% agonist activity when compared to the positive control) | > 10000 nM | > 10000 nM | – | – | – | – | – | – | –
CCCn1c(C(=O)c2c(C)n(CCC)c3sccc23)cc2ccccc21 [Compound I-14] | NS (“Not Significant,” which means less than 30% agonist activity when compared to the positive control) | 100 to 1000 nM | 100 to 1000 nM | 100 to 1000 nM | 100 to 1000 nM | – | – | – | – | –
CCn1c(C(=O)c2c(C)n(CC3CCOCC3)c3ccccc23)cc2ccsc21 [Compound I-17] | – | 100 to 1000 nM | < 100 nM | < 100 nM | < 100 nM | 100 to 1000 nM | – | – | – | –
CCn1c(C(=O)c2c(C)n(CCCNS(C)(=O)=O)c3ccccc23)cc2ccsc21 [Compound I-19] | NS (“Not Significant,” which means less than 30% agonist activity when compared to the positive control) | 1000 to 10000 nM | < 100 nM | – | – | – | < 100 nM | < 100 nM | – | –
C=CCn1cc(C(=O)c2cc3ccsc3n2CC)c2cnccc21 [Compound I-21] | – | > 10000 nM | 100 to 1000 nM | 100 to 1000 nM | 1000 to 10000 nM | 100 to 1000 nM | – | – | – | –
CCCn1cc(C(=O)c2cc3ccsc3n2CC)c2cnccc21 [Compound I-22] | NS (“Not Significant,” which means less than 30% agonist activity when compared to the positive control) | 1000 to 10000 nM | 100 to 1000 nM | 100 to 1000 nM | < 100 nM | – | – | – | – | –
CCCn1cc(C(=O)c2cc3ccsc3n2CC)c2ccncc21 [Compound I-23] | NS (“Not Significant,” which means less than 30% agonist activity when compared to the positive control) | 1000 to 10000 nM | < 100 nM | 100 to 1000 nM | < 100 nM | – | – | – | – | –
CCOC(=O)CCn1c(C)c(C(=O)c2cc3ccsc3n2CC)c2ccccc21 [Compound I-26] | NS (“Not Significant,” which means less than 30% agonist activity when compared to the positive control) | > 10000 nM | 100 to 1000 nM | – | – | – | – | < 100 nM | – | –
CCCn1c(C)c(C(=O)c2cc3scnc3[nH]2)c2ccccc21 [Compound I-30] | NS (“Not Significant,” which means less than 30% agonist activity when compared to the positive control) | > 10000 nM | 1000 to 10000 nM | – | – | – | – | – | – | –
CCn1c(C(=O)c2c(C)[nH]c3ccccc23)cc2ccsc21 [Compound I-38] | NS (“Not Significant,” which means less than 30% agonist activity when compared to the positive control) | – | – | – | – | – | – | – | > 10000 nM | 1000 to 10000 nM
CCn1c(C(=O)c2c[nH]c3ccncc23)cc2ccsc21 [Compound I-39] | NS (“Not Significant,” which means less than 30% agonist activity when compared to the positive control) | – | – | – | – | – | – | – | > 10000 nM | > 10000 nM
CCn1c(C(=O)c2c[nH]c3cnccc23)cc2ccsc21 [Compound I-40] | NS (“Not Significant,” which means less than 30% agonist activity when compared to the positive control) | – | – | – | – | – | – | – | > 10000 nM | > 10000 nM
CCCn1c(C(=O)c2c[nH]c3ccncc23)cc2ccsc21 [Compound I-44] | NS (“Not Significant,” which means less than 30% agonist activity when compared to the positive control) | – | – | – | – | – | – | – | > 10000 nM | > 10000 nM
CCCn1c(C(=O)c2c(C)[nH]c3ccccc23)cc2ccsc21 [Compound I-51] | NS (“Not Significant,” which means less than 30% agonist activity when compared to the positive control) | > 10000 nM | 100 to 1000 nM | – | – | – | – | 100 to 1000 nM | – | –
CCCn1c(C(=O)c2c(C)n(S(=O)(=O)CC)c3ccccc23)cc2ccsc21 [Compound I-67] | NS (“Not Significant,” which means less than 30% agonist activity when compared to the positive control) | > 10000 nM | 100 to 1000 nM | – | – | – | – | 100 to 1000 nM | – | –
CCCn1c(C(=O)c2c(C)[nH]c3ccc(C)cc23)cc2ccsc21 [Compound I-68] | NS (“Not Significant,” which means less than 30% agonist activity when compared to the positive control) | > 10000 nM | 1000 to 10000 nM | – | – | – | – | – | – | –
CCCn1c(C(=O)c2c3c(n(CCN4CCOCC4)c2C)CCCC3)cc2ccsc21 [Compound I-79] | – | 100 to 1000 nM | < 100 nM | – | – | – | < 100 nM | < 100 nM | – | –
Cc1c(C(=O)c2cc3ccsc3[nH]2)c2ccccc2n1CCN1CCOCC1 [Compound I-82] | – | 1000 to 10000 nM | 100 to 1000 nM | 100 to 1000 nM | 100 to 1000 nM | – | – | – | – | –
CCCn1c(C)c(C(=O)c2cc3ccsc3n2CC)c2c1CCCC2 [Compound I-85] | – | 1000 to 10000 nM | < 100 nM | < 100 nM | < 100 nM | – | – | – | – | –
CCCn1c(C)c(C(=O)c2cc3ccsc3n2CC)c2c1CCCCC2 [Compound I-87] | – | 1000 to 10000 nM | < 100 nM | – | – | – | < 100 nM | < 100 nM | – | –
